According to patent publication US8227636B2, “Histone deacetylase inhibitor prodrugs” (Merck HDAC Research, LLC, priority 2004, dated 2012):

How the values were obtained:
[1] = target: T1, histone deacetylase, subtype 1 (HDAC1) (Homo sapiens, UniProt Q13547); test: HDAC1-Flag assay (in vitro deacetylation assay); type: biochemical; conditions: for inhibition at 10 µM: 10 μM compound, read-out: HDAC1 % INH 10 μM; for inhibition at 100 µM: 100 μM compound, read-out: HDAC1 % INH 100 μM; for IC50: epitope-tagged human HDAC1 complex, substrate at Km, fluorogenic acetylated lysine substrate, read-out: HDAC1 IC50 Ave
T1 construct: Flag; made in house
T1 sequence (Q13547 whole entry): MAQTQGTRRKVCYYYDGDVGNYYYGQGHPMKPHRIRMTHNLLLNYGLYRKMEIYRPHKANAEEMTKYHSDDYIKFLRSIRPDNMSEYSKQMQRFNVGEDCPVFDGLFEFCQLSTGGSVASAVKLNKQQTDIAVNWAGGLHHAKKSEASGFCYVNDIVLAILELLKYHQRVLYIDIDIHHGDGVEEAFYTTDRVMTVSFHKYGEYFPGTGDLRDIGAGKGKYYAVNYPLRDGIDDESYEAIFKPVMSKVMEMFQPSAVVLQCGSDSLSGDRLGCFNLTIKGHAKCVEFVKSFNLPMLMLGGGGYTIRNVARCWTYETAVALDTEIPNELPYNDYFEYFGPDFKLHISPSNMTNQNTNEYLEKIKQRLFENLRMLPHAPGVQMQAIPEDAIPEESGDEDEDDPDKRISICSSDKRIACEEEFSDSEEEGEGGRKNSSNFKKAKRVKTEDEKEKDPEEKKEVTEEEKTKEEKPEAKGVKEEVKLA
Description: Novel compounds were tested for their ability to inhibit histone deacetylase, subtype 1 (HDAC1) using an in vitro deacetylation assay. The enzyme source for this assay was an epitope-tagged human HDAC1 complex immuno-purified from stably expressing mammalian cells. The substrate consisted of a commercial product containing an acetylated lysine side chain (BIOMOL Research Laboratories, Inc., Plymouth Meeting, Pa.). Upon deacetylation of the substrate by incubation with the purified HDAC1 complex, a fluorophore is produced that is directly proportional to the level of deacetylation.

[2] = test system: murine erythroleukemia cell line SC9; test: MTS assay (Cell Titer 96 Aqueous One Solution Cell Proliferation Assay); type: cell-based; conditions: Mus musculus; SC9 cells, 48 hours incubation; unit inferred
Description: The novel compounds of the present invention were tested for their ability to inhibit proliferation of the murine erythroleukemia cell line SC9. The MTS assay, also referred to as the Cell Titer 96 Aqueous One Solution Cell Proliferation Assay, is a colorimetric method for determining the number of viable cells in proliferation, cytotoxicity, or chemosensitivity assays. […] Murine erythroleukemia cells (SC-9) were incubated with vehicle or increasing concentrations of compound for 48 hours.

Q: `O=C(CCCCCCC(=O)Nc1ccccc1)NOC(=O)/C=C/c1ccccc1` [VII, Octanedioic acid (3-phenyl-acryloyloxy)-amide phenylamide] was tested. Which inhibition at 10 µM [1] did it give?
A: 26%

Q: What about the inhibition at 100 µM [1] of the same compound?
A: 45%

Q: And the IC50 [2]?
A: 648 nM

Q: What does the source list for `CC(C)(C)OC(=O)N[C@@H](Cc1ccccc1)C(=O)ONC(=O)CCCCCCC(=O)Nc1ccccc1` [XIX, [1-Benzyl-2-oxo-2-(7-phenylcarbamoyl-heptanoylaminooxy)-ethyl]-carbamic acid tert-butyl ester]?
A: inhibition at 10 µM [1]: 87%; inhibition at 100 µM [1]: 96%; IC50 [2]: 446 nM

Q: What does the source list for `COc1ccc(C(=O)ONC(=O)CCCCCCC(=O)Nc2ccccc2)cc1` [XIII, Octanedioic acid (4-methoxy-benzoyloxy)-amide phenylamide]?
A: inhibition at 10 µM [1]: 21%; inhibition at 100 µM [1]: 65%; IC50 [2]: 748 nM

Q: With `O=C(CCCCCCC(=O)Nc1ccccc1)NOC(=O)c1cccc2ccccc12` [XI, Octanedioic acid (naphthalene-1-carbonyloxy)-amide phenylamide] as the compound, how does the inhibition at 10 µM [1] read?
A: 5%

Q: And the inhibition at 100 µM [1]?
A: 5%

Q: What about the IC50 [2] of the same compound?
A: 5220 nM

Q: How did the inhibition at 10 µM [1] turn out when `COc1ccccc1C(=O)ONC(=O)CCCCCCC(=O)Nc1ccccc1` [XV, Octanedioic acid (2-methoxy-benzoyloxy)-amide phenylamide] was run?
A: 23%

Q: And the inhibition at 100 µM [1]?
A: 48%

Q: And the IC50 [2]?
A: 592 nM

Q: `O=C(CCCCCCC(=O)Nc1ccccc1)NOC(=O)CCCc1ccccc1` [VI, Octanedioic acid phenylamide(4-phenyl-butyryloxy)-amide] was tested. Which inhibition at 10 µM [1] did it give?
A: 27%

Q: What about the inhibition at 100 µM [1] of the same compound?
A: 62%

Q: What about the IC50 [2] of the same compound?
A: 1540 nM

Q: `O=C(CCCCCCC(=O)Nc1ccccc1)NOC(=O)c1ccc(Cl)cc1` [XVI, Octanedioic acid (4-chloro-benzoyloxy)-amide phenylamide] was tested. Which inhibition at 10 µM [1] did it give?
A: 24%

Q: And the inhibition at 100 µM [1]?
A: 36%

Q: What about the IC50 [2] of the same compound?
A: 434 nM

Q: `Cc1ccc(C(=O)ONC(=O)CCCCCCC(=O)Nc2ccccc2)cc1` [XIV, Octanedioic acid (4-methyl-benzoyloxy)-amide phenylamide] was tested. Which inhibition at 10 µM [1] did it give?
A: 38%

Q: What about the inhibition at 100 µM [1] of the same compound?
A: 74%

Q: What about the IC50 [2] of the same compound?
A: 862 nM

Q: For `O=C(CCCCCCC(=O)Nc1ccccc1)NOC(=O)c1cccnc1` [III, Octanedioic acid phenylamide(pyridine-3-carbonyloxy)-amide], which inhibition at 10 µM [1] is on record?
A: 87%

Q: What about the inhibition at 100 µM [1] of the same compound?
A: 97%

Q: What about the IC50 [1] of the same compound?
A: 582 ± 312 nM

Q: And the IC50 [2]?
A: 252 ± 56.5 nM

Q: Which results are given for `O=C(CCCCCCC(=O)Nc1ccccc1)NOC(=O)CCCCCCC(=O)Nc1ccccc1` [I, Octanedioic acid phenylamide(7-phenylcarbamoyl-heptanoyloxy)-amide]?
A: inhibition at 10 µM [1]: 45%; inhibition at 100 µM [1]: 79%; IC50 [1]: 51900 nM; IC50 [2]: 785 ± 4.9 nM

Q: For `O=C(CCCCCCC(=O)Nc1ccccc1)NOC(=O)CCc1ccccc1` [V, Octanedioic acid phenylamide(3-phenyl-propionyloxy)-amide], which inhibition at 10 µM [1] is on record?
A: 64%

Q: What about the inhibition at 100 µM [1] of the same compound?
A: 90%

Q: And the IC50 [1]?
A: 1680 ± 1200 nM

Q: What about the IC50 [2] of the same compound?
A: 491 ± 327 nM

Q: What does the source list for `O=C(CCCCCCC(=O)Nc1ccccc1)NOC(=O)c1ccc2ccccc2c1` [X, Octanedioic acid (naphthalene-2-carbonyloxy)-amide phenylamide]?
A: inhibition at 10 µM [1]: 9%; inhibition at 100 µM [1]: 22%; IC50 [2]: 1790 nM

Q: Which results are given for `O=C(CCCCCCC(=O)Nc1ccccc1)NOC(=O)[C@@H](Cc1ccccc1)NC(=O)OCc1ccccc1` [XVIII, [1-Benzyl-2-oxo-2-(7-phenylcarbamoyl-heptanoylaminooxy)-ethyl]-carbamic acid benzyl ester]?
A: inhibition at 10 µM [1]: 78%; inhibition at 100 µM [1]: 93%; IC50 [2]: 443 nM

Q: How did the inhibition at 10 µM [1] turn out when `COc1cccc(C(=O)ONC(=O)CCCCCCC(=O)Nc2ccccc2)c1` [XII, Octanedioic acid (3-methoxy-benzoyloxy)-amide phenylamide] was run?
A: 20%

Q: What about the inhibition at 100 µM [1] of the same compound?
A: 43%

Q: What about the IC50 [2] of the same compound?
A: 494 nM

Q: Which results are given for `O=C(CCCCCCC(=O)Nc1ccccc1)NOC(=O)[C@H](Cc1ccccc1)NC(=O)OCc1ccccc1` [XVII, [1-Benzyl-2-oxo-2-(7-phenylcarbamoyl-heptanoylaminooxy)-ethyl]-carbamic acid benzyl ester]?
A: inhibition at 10 µM [1]: 94%; inhibition at 100 µM [1]: 99%; IC50 [2]: 753 nM

Q: With `O=C(CCCCCCC(=O)Nc1ccccc1)NOC(=O)c1ccc(-c2ccccc2)cc1` [VIII, Octanedioic acid (biphenyl-4-carbonyloxy)-amide phenylamide] as the compound, how does the inhibition at 10 µM [1] read?
A: 94%

Q: What about the inhibition at 100 µM [1] of the same compound?
A: 99%

Q: What about the IC50 [2] of the same compound?
A: 1380 nM

Q: Which inhibition at 10 µM [1] does the source give for `CCCCc1ccc(C(=O)ONC(=O)CCCCCCC(=O)Nc2ccccc2)cc1` [IV, Octanedioic acid (4-butyl-benzoyloxy)-amide phenylamide] here?
A: 10%

Q: And the inhibition at 100 µM [1]?
A: 50%

Q: What about the IC50 [2] of the same compound?
A: 1760 nM

Q: For `CC(=O)ONC(=O)CCCCCCC(=O)Nc1ccccc1` [II, Octanedioic acid acetoxy-amide phenylamide], which inhibition at 10 µM [1] is on record?
A: -17%

Q: And the inhibition at 100 µM [1]?
A: 2%

Q: And the IC50 [2]?
A: 246 ± 78.4 nM

Q: `O=C(CCCCCCC(=O)Nc1ccccc1)NOC(=O)c1ccccc1` [IX, Octanedioic acid benzoyloxy-amide phenylamide] was tested. Which inhibition at 10 µM [1] did it give?
A: 20%

Q: And the inhibition at 100 µM [1]?
A: 60%

Q: What about the IC50 [2] of the same compound?
A: 1200 nM
